Measurements published in patent publication US20240293379A1, “THERAPEUTIC AGENT FOR CANCER OF PATIENT WITH DECREASE IN RB1 FUNCTION USING MYT1 INHIBITOR AND CHEMOTHERAPEUTIC AGENT IN COMBINATION, AND TREATMENT METHOD THEREOF” (Chugai Seiyaku Kabushiki Kaisha, priority 2022, published 2024).

Assays:
Experiment in all cases: Pemetrexed cytotoxicity test upon suppression of expression of MYT1
Assay type in all cases: cell-based
[1] = test system: A549; conditions: A549 (RB1 wild-type)
Procedure: (§1) Thereafter, the plates were shaken to transfect each siRNA at a final concentration of 10 nM.
(§2) The −Log 2 value of fold change of IC50 and the maximum value of Bliss score, which are indexes of the combination effect, were calculated by comparing with the actually obtained cell survival curve, and described in Table 6 (see Non Patent Literature 9).

[2] = test system: ABC-1; conditions: ABC-1 (RB1 wild-type)
Procedure: as §1, §2

[3] = test system: ChaGo-K-1; conditions: ChaGo-K-1 (RB1 mutant)
Procedure: as §1, §2

[4] = test system: EKVX; conditions: EKVX (RB1 wild-type)
Procedure: as §1, §2

[5] = test system: HOP-62; conditions: HOP-62 (RB1 wild-type)
Procedure: as §1, §2

[6] = test system: LU65; conditions: LU65 (RB1 mutant)
Procedure: as §1, §2

[7] = test system: NCI-H1155; conditions: NCI-H1155 (RB1 mutant)
Procedure: as §1, §2

[8] = test system: NCI-H1666; conditions: NCI-H1666 (RB1 wild-type)
Procedure: as §1, §2

[9] = test system: NCI-H1993; conditions: NCI-H1993 (RB1 wild-type)
Procedure: as §1, §2

[10] = test system: NCI-H2110; conditions: NCI-H2110 (RB1 mutant)
Procedure: as §1, §2

[11] = test system: NCI-H2122; conditions: NCI-H2122 (RB1 wild-type)
Procedure: as §1, §2

[12] = test system: NCI-H292; conditions: NCI-H292 (RB1 wild-type)
Procedure: as §1, §2

[13] = test system: NCI-H322; conditions: NCI-H322 (RB1 wild-type)
Procedure: as §1, §2

[14] = test system: NCI-H358; conditions: NCI-H358 (RB1 wild-type)
Procedure: as §1, §2

[15] = test system: NCI-H441; conditions: NCI-H441 (RB1 wild-type)
Procedure: as §1, §2

[16] = test system: NCI-H460; conditions: NCI-H460 (RB1 wild-type)
Procedure: as §1, §2

[17] = test system: NCI-H596; conditions: NCI-H596 (RB1 mutant)
Procedure: as §1, §2

[18] = test system: NCI-H661; conditions: NCI-H661 (RB1 wild-type)
Procedure: as §1, §2

[19] = test system: PC-9; conditions: PC-9 (RB1 wild-type)
Procedure: as §1, §2

[20] = pemetrexed + MYT1 siRNA #18 10 nM

MYT1 #18: ON-TARGETplus individual siRNA, Dharmacon product code J-005026-18, nucleotide sequence SEQ ID No: 5 (CUUCCGAGCUGCGUUCUGU; chemistry not fully specified)
Cytotoxic activity of siRNA alone, MYT1 #18 ([1]; 10 nM, no pemetrexed): 0.844%
Bliss score maximum value, MYT1 #18 [1, 20]: 9.581
HSA score maximum value, MYT1 #18 [1, 20]: 10.174
Cytotoxic activity of siRNA alone, MYT1 #18 ([2]; 10 nM, no pemetrexed): 7.811%
Bliss score maximum value, MYT1 #18 [2, 20]: 22.139
Cytotoxic activity of siRNA alone, MYT1 #18 ([3]; 10 nM, no pemetrexed): −2.748%
Bliss score maximum value, MYT1 #18 [3, 20]: 34.464
HSA score maximum value, MYT1 #18 [3, 20]: 32.605
Cytotoxic activity of siRNA alone, MYT1 #18 ([4]; 10 nM, no pemetrexed): 1.053%
Bliss score maximum value, MYT1 #18 [4, 20]: 6.653
HSA score maximum value, MYT1 #18 [4, 20]: 7.060
Cytotoxic activity of siRNA alone, MYT1 #18 ([5]; 10 nM, no pemetrexed): 10.654%
Bliss score maximum value, MYT1 #18 [5, 20]: 20.375
HSA score maximum value, MYT1 #18 [5, 20]: 25.849
Cytotoxic activity of siRNA alone, MYT1 #18 ([6]; 10 nM, no pemetrexed): −0.297%
Bliss score maximum value, MYT1 #18 [6, 20]: 34.154
HSA score maximum value, MYT1 #18 [6, 20]: 33.984
Cytotoxic activity of siRNA alone, MYT1 #18 ([7]; 10 nM, no pemetrexed): 30.960%
Bliss score maximum value, MYT1 #18 [7, 20]: 23.341
HSA score maximum value, MYT1 #18 [7, 20]: 32.708
Cytotoxic activity of siRNA alone, MYT1 #18 ([8]; 10 nM, no pemetrexed): 1.456%
Bliss score maximum value, MYT1 #18 [8, 20]: 13.160
HSA score maximum value, MYT1 #18 [8, 20]: 13.970
Cytotoxic activity of siRNA alone, MYT1 #18 ([9]; 10 nM, no pemetrexed): 10.347%
Bliss score maximum value, MYT1 #18 [9, 20]: 7.046
HSA score maximum value, MYT1 #18 [9, 20]: 14.207
Cytotoxic activity of siRNA alone, MYT1 #18 ([10]; 10 nM, no pemetrexed): 9.660%
Bliss score maximum value, MYT1 #18 [10, 20]: 23.200
HSA score maximum value, MYT1 #18 [10, 20]: 28.531
Cytotoxic activity of siRNA alone, MYT1 #18 ([11]; 10 nM, no pemetrexed): 5.899%
Bliss score maximum value, MYT1 #18 [11, 20]: 13.938
Cytotoxic activity of siRNA alone, MYT1 #18 ([12]; 10 nM, no pemetrexed): 11.155%
Bliss score maximum value, MYT1 #18 [12, 20]: 6.895
HSA score maximum value, MYT1 #18 [12, 20]: 11.985
Cytotoxic activity of siRNA alone, MYT1 #18 ([13]; 10 nM, no pemetrexed): −6.271%
Bliss score maximum value, MYT1 #18 [13, 20]: 23.827
HSA score maximum value, MYT1 #18 [13, 20]: 19.509
Cytotoxic activity of siRNA alone, MYT1 #18 ([14]; 10 nM, no pemetrexed): 2.693%
Bliss score maximum value, MYT1 #18 [14, 20]: 13.168
HSA score maximum value, MYT1 #18 [14, 20]: 14.592
Cytotoxic activity of siRNA alone, MYT1 #18 ([15]; 10 nM, no pemetrexed): 22.238%
Bliss score maximum value, MYT1 #18 [15, 20]: 0.784
HSA score maximum value, MYT1 #18 [15, 20]: 17.896
Cytotoxic activity of siRNA alone, MYT1 #18 ([16]; 10 nM, no pemetrexed): −2.387%
HSA score maximum value, MYT1 #18 [16, 20]: 9.099
Cytotoxic activity of siRNA alone, MYT1 #18 ([17]; 10 nM, no pemetrexed): −2.058%
Bliss score maximum value, MYT1 #18 [17, 20]: 44.329
HSA score maximum value, MYT1 #18 [17, 20]: 42.707
Cytotoxic activity of siRNA alone, MYT1 #18 ([18]; 10 nM, no pemetrexed): 9.766%
Bliss score maximum value, MYT1 #18 [18, 20]: 11.699
HSA score maximum value, MYT1 #18 [18, 20]: 16.633
Cytotoxic activity of siRNA alone, MYT1 #18 ([19]; 10 nM, no pemetrexed): −9.517%
Bliss score maximum value, MYT1 #18 [19, 20]: 18.833
HSA score maximum value, MYT1 #18 [19, 20]: 14.476
